The results in this text go back to ChEMBL document CHEMBL4602695, “Discovery and SARs of 5-Chloro-N4-phenyl-N2-(pyridin-2-yl)pyrimidine-2,4-diamine Derivatives as Oral Available and Dual CDK 6 and 9 Inhibitors with Potent Antitumor Activity” (J Med Chem, 2020).

In brackets after ≈: the same amount, converted by molar mass.

In data set [1] the target is CDK2/Cyclin A2 (Homo sapiens, UniProt P24941). More on the design: species or system Sf9.
Data set [2] concerns MDA-MB-231. Briefly: Cell cycle arrest in human MDA-MB-231 cells assessed as accumulation at G2/M phase at 4 uM measured after 48 hrs by propidium iodide staining based flow cytometry (reference value: 15.9%). The data set is classed as functional. In general terms: A flow cytometer gives signals particle by particle.
Data set [3] relates to MDA-MB-231. Briefly: Cell cycle arrest in human MDA-MB-231 cells assessed as accumulation at G0/G1 phase at 12 uM measured after 48 hrs by propidium iodide staining based flow cytometry (reference value: 57.65%). In kind it is functional.
The test system of data set [4] is MDA-MB-231. Briefly: Cell cycle arrest in human MDA-MB-231 cells assessed as accumulation at G2/M phase at 12 uM measured after 48 hrs by propidium iodide staining based flow cytometry (reference value: 15.9%). In kind it is functional.
Data set [5] deals with MDA-MB-231. Briefly: Induction of apoptosis in human MDA-MB-231 cells assessed as early apoptotic cells at 12 uM measured after 48 hrs by Annexin V-FITC/propidium iodide staining based flow cytometry (0.877%). The data set is classed as functional.
Data set [6] can be described thus: Thermodynamic equilibrium solubility in water by HPLC-based shake flask method. In kind it is physicochemical. The note with it: read-out: Therm_solubility.
The nature of data set [7]: Stability in human hepatocytes assessed as parent compound remaining after 120 mins by LC-MS/MS analysis. The data set is classed as ADME, cell-based, Hepatocyte. The conditions noted are these: read-out: Stability.
A short description of data set [8]: Half life in Sprague-Dawley rat at 2 mg/kg, iv by LC-MS/MS analysis. The data set is classed as ADME, organism-based. The note with it: in vivo.
Data set [9] can be described thus: Cmax in Sprague-Dawley rat at 2 mg/kg, iv by LC-MS/MS analysis. The data set is classed as ADME, organism-based. Also noted: dose 2 mg/kg, route intravenous. The conditions noted are these: in vivo.
Data set [10] can be described thus: Oral bioavailability in Sprague-Dawley rat at 10 mg/kg by LC-MS/MS analysis. The note with it: in vivo. The data set is classed as ADME, organism-based.
The nature of data set [11]: Toxicity in ICR mouse assessed as weight loss at 500 mg/kg, po administered as single dose measured for 7 days. In kind it is organism-based. The conditions noted are these: in vivo, 168 h.
Data set [12] deals with Cyclin-dependent kinase 5/CDK5 activator 1 (Homo sapiens, UniProt Q00535). The note with it: Sf9, human, read-out: INH.
Data set [13] concerns the target CDK9/Cyclin K (Homo sapiens, UniProt P50750). Briefly: biochemical.

Sequence of Cyclin-dependent kinase 5/CDK5 activator 1 (Q00535 whole entry): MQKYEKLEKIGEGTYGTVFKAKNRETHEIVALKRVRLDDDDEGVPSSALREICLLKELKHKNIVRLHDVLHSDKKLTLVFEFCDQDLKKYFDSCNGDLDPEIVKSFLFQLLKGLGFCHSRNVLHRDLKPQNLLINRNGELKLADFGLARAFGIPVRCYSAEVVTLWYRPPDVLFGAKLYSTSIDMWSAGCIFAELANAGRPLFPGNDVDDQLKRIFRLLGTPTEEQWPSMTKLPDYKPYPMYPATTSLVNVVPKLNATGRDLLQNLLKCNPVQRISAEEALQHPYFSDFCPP
Sequence of Cyclin-dependent kinase 5/CDK5 activator 1 (Q15078 whole entry, further chain): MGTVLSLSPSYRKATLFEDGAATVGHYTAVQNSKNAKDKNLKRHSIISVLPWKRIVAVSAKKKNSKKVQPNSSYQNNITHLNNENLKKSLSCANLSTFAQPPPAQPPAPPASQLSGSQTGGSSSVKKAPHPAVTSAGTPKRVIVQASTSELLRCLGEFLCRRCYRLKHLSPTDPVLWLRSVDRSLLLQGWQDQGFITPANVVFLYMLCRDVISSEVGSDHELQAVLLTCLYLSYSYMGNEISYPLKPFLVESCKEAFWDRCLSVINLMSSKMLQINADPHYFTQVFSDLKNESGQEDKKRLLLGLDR
Sequence of CDK9/Cyclin K (P50750 whole entry): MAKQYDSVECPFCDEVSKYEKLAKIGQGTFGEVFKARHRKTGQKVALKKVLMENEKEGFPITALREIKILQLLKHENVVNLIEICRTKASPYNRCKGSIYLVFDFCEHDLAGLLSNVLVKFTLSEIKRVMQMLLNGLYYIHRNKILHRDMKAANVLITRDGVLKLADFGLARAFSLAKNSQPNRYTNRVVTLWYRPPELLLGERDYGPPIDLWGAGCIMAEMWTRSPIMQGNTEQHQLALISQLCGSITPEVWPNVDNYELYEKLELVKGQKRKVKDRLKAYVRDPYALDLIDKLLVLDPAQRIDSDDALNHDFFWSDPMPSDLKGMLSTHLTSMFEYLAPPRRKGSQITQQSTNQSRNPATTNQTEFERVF
Sequence of CDK9/Cyclin K (O75909 whole entry, further chain): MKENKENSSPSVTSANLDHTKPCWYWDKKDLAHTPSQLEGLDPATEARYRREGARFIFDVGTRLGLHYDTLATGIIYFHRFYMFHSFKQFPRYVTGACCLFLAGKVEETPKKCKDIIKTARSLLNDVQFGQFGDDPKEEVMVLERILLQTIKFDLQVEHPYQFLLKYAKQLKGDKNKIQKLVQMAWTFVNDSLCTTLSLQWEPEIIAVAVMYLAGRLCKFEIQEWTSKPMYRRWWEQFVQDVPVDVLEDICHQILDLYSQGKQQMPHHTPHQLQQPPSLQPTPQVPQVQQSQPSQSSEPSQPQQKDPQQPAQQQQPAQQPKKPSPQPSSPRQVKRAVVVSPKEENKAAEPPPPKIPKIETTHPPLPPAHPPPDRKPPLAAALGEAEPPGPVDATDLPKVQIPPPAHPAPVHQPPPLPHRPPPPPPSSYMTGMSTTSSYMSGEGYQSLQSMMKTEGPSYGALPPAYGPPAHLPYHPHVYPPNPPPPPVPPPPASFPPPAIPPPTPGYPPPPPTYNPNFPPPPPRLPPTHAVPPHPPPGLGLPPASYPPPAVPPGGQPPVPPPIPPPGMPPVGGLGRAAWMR

In the case of `CC(=O)Nc1cccc(Nc2nc(Nc3ccc(N4CCN(C)CC4)cn3)ncc2Cl)c1`, the IC50 (as a rule, the point on the concentration scale where inhibition reaches its midpoint) was more than 10 µM in data set [1] and 0.0395 µM in data set [13]. The Activity in data set [2] is on record as 9.18%; in data set [3], 50.5%; in [4], 34.27%; in [5] it was 16.4%; in data set [11] it was “Non-Toxic”. For the same compound, in [6], the solubility thermodynamic is 0.34 mg/mL (≈ 751 µM). Besides, in [7], the remaining at 2 h is 40.4%. The half-life – broadly, how long it takes for the measured level to halve – in data set [8] is 1.76 h. Further, the maximum concentration (Cmax) (commonly the maximum level reached in the sampled fluid or tissue) in [9] is 0.995 µg/mL. The bioavailability (in general, the share of a dose that reaches the circulation, judged against a reference dose that is usually intravenous) in data set [10] stood at 28.9%. The inhibition at 1 µM in [12] is less than 6.6%.
